# System: K24384-001-R-PDC complex spheroids, viability
# Test: Anticancer human tumor K24384-001-R-PDC patient-derived pancreatic adenocarcinoma cell line growth inhibition [GQUAD]
# Details: for IC50: curve of first compound; for viability, T/C: stronger effect = lower value
# How it was run: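 Multi-cell-type spheroids of tumor cells with HUVEC and mesenchymal stem cells, treated with drug combinations. Concentrations descend in half-log steps from near clinical Cmax, or from 10 microM where Cmax is unknown; viability read-out.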
# [1] = second compound 0.0316 µM, first compound 0.0316 µM
# [2] = second compound 0.0316 µM, first compound 0.316 µM
# [3] = second compound 0.1 µM, first compound 0.0316 µM
# [4] = second compound 0.1 µM, first compound 0.316 µM
# [5] = second compound 0.316 µM, first compound 0.0316 µM
# [6] = second compound 0.316 µM, first compound 0.316 µM
# [7] = second compound 1 µM, first compound 0.0316 µM
# [8] = second compound 1 µM, first compound 0.316 µM
# [9] = second compound 3.16 µM, first compound 0.0316 µM
# [10] = second compound 3.16 µM, first compound 0.316 µM
# [11] = second compound 10 µM, first compound 0.0316 µM
# [12] = second compound 10 µM, first compound 0.316 µM
# 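Note: spheroids exposed to compounds for seven days.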
compound,measurement,setting,value
CC[C@@]1(O)C(=O)OCc2c1cc1n(c2=O)Cc2cc3c(CN(C)C)c(O)ccc3nc2-1 + Cc1cnc(CNC(=O)c2c(=O)c3ccc(N4CCCN(C)CC4)nc3n3c2sc2ccccc23)cn1,IC50,second compound 0.0316 µM,> 316 nM
same,IC50,second compound 0.1 µM,214 nM
same,IC50,second compound 0.316 µM,137 nM
same,IC50,second compound 1 µM,< 0.999 nM
same,IC50,second compound 3.16 µM,< 0.999 nM
same,IC50,second compound 10 µM,< 0.999 nM
same,"viability, T/C","second compound 0.0316 µM, first compound 0.000999 µM",96.3%
same,"viability, T/C","second compound 0.0316 µM, first compound 0.00316 µM",71.1%
same,"viability, T/C","second compound 0.0316 µM, first compound 0.00999 µM",105%
same,"viability, T/C",[1],64.1%
same,"viability, T/C","second compound 0.0316 µM, first compound 0.0999 µM",58.5%
same,"viability, T/C",[2],44.1%
same,"viability, T/C","second compound 0.1 µM, first compound 0.000999 µM",64.1%
same,"viability, T/C","second compound 0.1 µM, first compound 0.00316 µM",69%
same,"viability, T/C","second compound 0.1 µM, first compound 0.00999 µM",64.8%
same,"viability, T/C",[3],58%
same,"viability, T/C","second compound 0.1 µM, first compound 0.0999 µM",56.5%
same,"viability, T/C",[4],47.1%
same,"viability, T/C","second compound 0.316 µM, first compound 0.000999 µM",56.1%
same,"viability, T/C","second compound 0.316 µM, first compound 0.00316 µM",55.2%
same,"viability, T/C","second compound 0.316 µM, first compound 0.00999 µM",47.8%
same,"viability, T/C",[5],49.9%
same,"viability, T/C","second compound 0.316 µM, first compound 0.0999 µM",60.3%
same,"viability, T/C",[6],39.8%
same,"viability, T/C","second compound 1 µM, first compound 0.000999 µM",40.7%
same,"viability, T/C","second compound 1 µM, first compound 0.00316 µM",51.3%
same,"viability, T/C","second compound 1 µM, first compound 0.00999 µM",36.5%
same,"viability, T/C",[7],42.7%
same,"viability, T/C","second compound 1 µM, first compound 0.0999 µM",46%
same,"viability, T/C",[8],37.6%
same,"viability, T/C","second compound 3.16 µM, first compound 0.000999 µM",34.8%
same,"viability, T/C","second compound 3.16 µM, first compound 0.00316 µM",39.1%
same,"viability, T/C","second compound 3.16 µM, first compound 0.00999 µM",34.3%
same,"viability, T/C",[9],39.6%
same,"viability, T/C","second compound 3.16 µM, first compound 0.0999 µM",40.5%
same,"viability, T/C",[10],30%
same,"viability, T/C","second compound 10 µM, first compound 0.000999 µM",34.1%
same,"viability, T/C","second compound 10 µM, first compound 0.00316 µM",22.9%
same,"viability, T/C","second compound 10 µM, first compound 0.00999 µM",36.3%
same,"viability, T/C",[11],38.4%
same,"viability, T/C","second compound 10 µM, first compound 0.0999 µM",21.2%
same,"viability, T/C",[12],0.39%
CC(=O)O[C@H]1C(=O)[C@@]2(C)[C@H]([C@H](OC(=O)c3ccccc3)[C@]3(O)C[C@H](OC(=O)[C@H](O)[C@@H](NC(=O)c4ccccc4)c4ccccc4)C(C)=C1C3(C)C)[C@]1(OC(C)=O)CO[C@@H]1C[C@@H]2O + CN(C)c1ccc(Nc2c3ccc(NC(=O)CCN4CCCC4)cc3nc3cc(NC(=O)CCN4CCCC4)ccc23)cc1,IC50,second compound 0.0316 µM,< 31.6 nM
same,IC50,second compound 0.1 µM,< 31.6 nM
same,IC50,second compound 0.316 µM,< 31.6 nM
same,IC50,second compound 1 µM,< 31.6 nM
same,IC50,second compound 3.16 µM,< 31.6 nM
same,IC50,second compound 10 µM,< 31.6 nM
same,"viability, T/C",[1],32.2%
same,"viability, T/C","second compound 0.0316 µM, first compound 0.1 µM",22.9%
same,"viability, T/C",[2],20.5%
same,"viability, T/C","second compound 0.0316 µM, first compound 1 µM",20.1%
same,"viability, T/C","second compound 0.0316 µM, first compound 3.16 µM",22.4%
same,"viability, T/C","second compound 0.0316 µM, first compound 10 µM",25.3%
same,"viability, T/C",[3],34.5%
same,"viability, T/C","second compound 0.1 µM, first compound 0.1 µM",22.1%
same,"viability, T/C",[4],18.5%
same,"viability, T/C","second compound 0.1 µM, first compound 1 µM",21.3%
same,"viability, T/C","second compound 0.1 µM, first compound 3.16 µM",20.7%
same,"viability, T/C","second compound 0.1 µM, first compound 10 µM",25.7%
same,"viability, T/C",[5],37.3%
same,"viability, T/C","second compound 0.316 µM, first compound 0.1 µM",22.4%
same,"viability, T/C",[6],17.6%
same,"viability, T/C","second compound 0.316 µM, first compound 1 µM",19.8%
same,"viability, T/C","second compound 0.316 µM, first compound 3.16 µM",19.5%
same,"viability, T/C","second compound 0.316 µM, first compound 10 µM",25.7%
same,"viability, T/C",[7],33.4%
same,"viability, T/C","second compound 1 µM, first compound 0.1 µM",23.7%
same,"viability, T/C",[8],19.3%
same,"viability, T/C","second compound 1 µM, first compound 1 µM",19.9%
same,"viability, T/C","second compound 1 µM, first compound 3.16 µM",26.1%
same,"viability, T/C","second compound 1 µM, first compound 10 µM",27.5%
same,"viability, T/C",[9],29.4%
same,"viability, T/C","second compound 3.16 µM, first compound 0.1 µM",20.7%
same,"viability, T/C",[10],24.4%
same,"viability, T/C","second compound 3.16 µM, first compound 1 µM",17.4%
same,"viability, T/C","second compound 3.16 µM, first compound 3.16 µM",23.2%
same,"viability, T/C","second compound 3.16 µM, first compound 10 µM",30.1%
same,"viability, T/C",[11],38.2%
same,"viability, T/C","second compound 10 µM, first compound 0.1 µM",26.4%
same,"viability, T/C",[12],24.9%
same,"viability, T/C","second compound 10 µM, first compound 1 µM",24.5%
same,"viability, T/C","second compound 10 µM, first compound 3.16 µM",33.9%
same,"viability, T/C","second compound 10 µM, first compound 10 µM",40.9%

# Source: PubChem BioAssay AID2060483 (Molecular Pharmacology Branch, DTP, NCI, 2025)
